Entries after “also recorded” stand apart in the source; their conditions may differ. Where no end group is shown, it is not given here. 4MPA = not defined here
Assays:
[1] = intranasal
[2] = test system: SARS-CoV-2; assay: Viral release assay; format: cell-based
[3] = test system: SARS-CoV-2; assay: Viral attachment/entry and replication in VeroE6 cells by RT-qPCR; format: cell-based
[4] = test system: SARS-CoV-2 (B.1.1.63); assay: Pre-exposure antiviral activity in hamsters; format: in vivo, hamster
[5] = molecular target: spike and ACE2 (Severe acute respiratory syndrome coronavirus 2, UniProt P0DTC2); conditions: ELISA
Protocol: (§2) For determining spike and ACE2 binding, 60 ng S or ACE2 in PBST was incubated with peptides at 37° C. for 30 min.

[6] = test system: fusion mediated by spike-Calu-3 cells; assay: Spike mediated cell fusion assay with Calu-3 cells; format: cell-based; conditions: TMPRSS2 pathway
[7] = test system: SARS-CoV-2; assay: Transmission electron microscopy assay; conditions: virus pretreated
Protocol: To determine the effect of 4H30 on viral particles, SARS-CoV-2 was pretreated by 100 μg ml^−1 of 4H30 or H30 for 1 h. The virus was fixed by formalin for overnight. For spike treated by 4H30 or H30, spike (100 μg ml^−1 mixed with 50 μg ml^−1 of 4H30 or H30. Viral or protein samples were applied to continuous carbon grids. The grids were transferred into 4% uranyl acetate and incubated for 1 min. After removing the solution, the grids were air-dried at room temperature. For each peptide/DNA nanoparticle, three independent experiments were done for taking TEM images by FEI Tecnal G2-20 TEM or Philips CM100-TEM.

[8] = test system: H1N1 virus; assay: H1N1 plaque reduction assay; format: cell-based; conditions: virus treated in PBS 30 min, VeroE6
[9] = ELISA binding of 4H30 to chondroitin sulfate; conditions: compared with BSA
[10] = test system: HRV-1B; assay: HRV-1B infection, supernatant viral RNA by RT-qPCR; format: cell-based; conditions: RD or H1-Hela cells, 30 hpi
Protocol: (§1) Viruses were treated by 4H30 for infection in RD or H1-Hela cells. Viruses, HRV-1B and HRV-B14 were treated by 4H30 in PBS for 30 min and then the treated viruses were added to RD or H1-Hela cells for infection. After 1 h infection, the un-infected viruses were removed and fresh media with the indicated concentration of 4H30 was added to cells for viral culture. The supernatant viruses were measured at 30 hpi by RT-qPCR. Viral RNA copy (%) was the viral RNA of 4H30-treated virus normalized to that of untreated virus (0). […] The primers for detecting the viral RNA copies: HRV-F1: 5′-[…] -3′; HRV-F2: 5′-[…] -3′, HRV-R: 5′-[…] -3′; HRV-Probe: 5′ HEX-[…] -1ABKFQ 3′ (Y=C or T, K=G or T). The supernatant viruses were measured at 30 hpi.

[11] = molecular target: spike (Severe acute respiratory syndrome coronavirus 2, UniProt P0DTC2); conditions: ELISA
Protocol: as §2

[12] = test system: Calu-3 cells; assay: MTT cytotoxicity assay in Calu-3 cells; format: cell-based
Protocol: Cytotoxicity of peptides was determined by the detection of 50% cytotoxic concentration (CC50) using a tetrazolium-based colorimetric MTT assay (H. Zhao, et al., Sci Rep, 6 (2016) 22008). Briefly, cells were seeded in 96-well cell culture plate at an initial density of 4×10^4 cells per well in DMEM supplemented with 10% FBS and incubated for overnight. Cell culture media were removed and then DMEM supplemented with various concentrations of peptides and 1% FBS were added to each well. After 24 h incubation at 37° C., MTT solution (5 mg ml^−1, 10 μl per well) was added to each well for incubation at 37° C. for 4 h. Then, 100 μl of 10% SDS in 0.01M HCl was added to each well. After further incubation at room temperature with shaking overnight, the plates were read at OD570 using VictorTM X3 Multilabel Reader (PerkinElmer, USA). Cell culture wells without peptides were used as the experiment control and medium only served as a blank control.

[13] = test system: SARS-CoV-2 (B.1.1.63); assay: Post-infection treatment, viral titers in supernatants; conditions: 4H30 added at 6 hpi
[14] = test system: VeroE6 cells; assay: Endosomal acidification assay; format: cell-based
Protocol: Endosomal acidification was detected with a pH-sensitive dye (pHrodo green dextran, Invitrogen, Cat^# P35365) according to the manufacturer's instructions as previously described but with slight modification (H. Zhao, et al., Nat Commun, 9 (2018) 2358). First, VeroE6 cells were treated with DMEM, 4H30 (25.0 μg ml^−1), or bafilomycin A1 (50.0 nM) at 4° C. for 15 min. Second, VeroE6 cells were added with 100 μg ml^−1 of pH-sensitive dye and DAPI and then incubated at 4° C. for 15 min. Before taking images, cells were further incubated at 37° C. for 15 min and then cells were washed twice with PBS. Finally, PBS was added to cells and images were taken immediately with confocal microscope (Carl Zeiss LSM 800, Germany).

[15] = test system: spike-ACE2 mediated fusion; format: cell-based; conditions: endocytosis pathway
[16] = test system: HRV-B14; assay: HRV-B14 infection, supernatant viral RNA by RT-qPCR; format: cell-based; conditions: RD or H1-Hela cells, 30 hpi
Protocol: as §1

[17] = test system: SARS-CoV-2 (B.1.163); assay: Post-exposure antiviral activity in hamsters, B.1.163; conditions: hamster, in vivo

What does the source list for “GAICHPVFCPRRYKQIGTCGLPGTKCCKKP-4MPA (cysteine pairing not given here; reading uncertain; also: printed as GAICHPVFCPRRYKQIGTCGLPGTKCCKKP-4MPA) [Peptide 4H30]”?
pathological and body weight changes ([1]; 4 dpi): did not cause pathological and body weight changes; histopathological and body weight changes ([1]; 40 dpi, compared with mock): no significant histopathological and body weight changes; intracellular replicative process [2]: not on the intracellular replicative process; viral release, viral load in supernatants [2]: significantly inhibit viral release; also recorded: significantly inhibited SARS-CoV-2 release; antiviral activity of 4H30 on viral release ([2]; 4H30 pretreated by CS or HS): significantly reduced; inhibitory activity of 4H30 on SARS-CoV-2 release ([2]; 4H30 with BSA): did not significantly affect; viral load increase at 6 hpi compared with 1 hpi [3]: 13 fold; viral attachment and/or entry ([3]; cells pretreated by 4H30): significantly increased; viral attachment and/or entry ([3]; virus pretreated by 4H30): significantly increased; SARS-CoV-2 attachment to cells ([3]; at 4 degrees): increase SARS-CoV-2 attachment; viral load at 6 hpi compared with 1 hpi ([3]; cell lysate, virus pretreated by 4H30): no significant increase in viral load; syncytia and epithelial cell disorder in bronchial tree ([4]; 4H30-0.05): not found; SARS-CoV-2 replication in lungs ([4]; hamster, in vivo): significantly inhibited SARS-CoV-2 replication; antiviral activity ([4]; hamster, in vivo): did not show antiviral activity; reduction of viral replication ([4]; hamster, in vivo): 2.3 fold; viral replication in lungs ([4]; hamster, in vivo): significantly inhibited viral replication; binding between spike and ACE2 [5]: did not significantly affect; fusion mediated by spike-Calu-3 cells [6]: did not inhibit; integrity of viral particles under TEM [7]: did not disrupt viral particles; viral clusters under TEM [7]: cross-linked SARS-CoV-2 to form bigger viral clusters; H1N1 virus replication [8]: significantly inhibited; binding to chondroitin sulfate (CS) [9]: effectively bind; inhibition of HRV-1B, viral RNA copy [10]: effectively inhibited; binding to spike [11]: more effectively bound to spike when compared with ACE2; TC50 [12]: higher than 400 μg ml^−1; SARS-CoV-2 replication ([13]; Calu-3 cells): significantly inhibited; SARS-CoV-2 replication ([13]; VeroE6 cells): significantly inhibited; endosomal acidification [14]: inhibition of endosomal acidification; spike-ACE2 mediated cell fusion [15]: blocking of spike-ACE2 mediated fusion; inhibition of HRV-B14, viral RNA copy [16]: effectively inhibited; SARS-CoV-2 replication in lungs [17]: significantly inhibit
